Data published in patent US20200113852A1, “METHODS OF PATIENT SELECTION AND TREATING TRXR- OR PRDX-OVEREXPRESSED CANCERS” (TRIACT THERAPEUTICS, INC., priority 2017, published 2020).
Like-named read-outs stand apart in the source and are kept apart here.

Key:
[1] = target: T1, human recombinant glutathione S-transferase pi (GSTP1) (Homo sapiens, UniProt P09211); assay: In vitro Iniparib-glutathione conjugation; type: biochemical; details: 30 μM, 1 mM GSH
T1 construct: purchased Acris
Description: Online solid phase extraction (SPE) was performed using the fully automated Spark Holland Symbiosis™ (Emmen, The Netherlands) in eXtraction Liquid Chromatography (XLC) mode. The Symbiosis™ has previously been described in detail (18). HySphere™ C18 HD 7 μm SPE cartridges were used (Spark Holland). Each cartridge was initially conditioned with 2 ml methanol+0.5% formic acid (FA) and then equilibrated with 2 ml water+0.5% FA, both at flow-rates of 4 ml/min. Sample (25 μl) was aspirated and loaded onto the cartridge with 1 ml water+0.5% FA at a flow-rate of 1 ml/min. […] After elution, the right clamp was washed successively with 2 ml water+0.5% FA, 2 ml methanol+0.5% FA and 2 ml water+0.5% FA at 4 ml/min. […] The mobile phase composition was returned to starting conditions over 1 min and maintained during 6 min for column equilibration. The total run time was 27 min. Mass spectrometry was performed using the Thermo® TSQ Quantum Discovery Max in electrospray positive ionization mode (Thermo, US) with the following parameters: capillary voltage=4.0 kV, capillary temperature=300° C., sheath gas pressure=40, auxiliary gas pressure=5.

[2] = system: Trx1/2 in MDA-MB-231 cells; assay: Trx redox western blot analysis; type: cell-based, human; details: GSH-depleted MDA-MB-231, 100 μM, 6h, increases further at 18h
Description: Quantification is obtained directly from the relative intensities of the different bands. Two forms of the redox Western blot have been developed, separating on the basis of differing charge (thiols are modified with a charged alkylating reagent) or mass (thiols are modified with a high-mass alkylating reagent). Redox analysis of the mitochondrial compartment is performed using a redox Western blot analysis of thioredoxin-2 (Trx2). Trx2 is exclusively found in mitochondria, so an analysis of a cell or tissue extract provides specific information on redox in the mitochondria without fractionation. Analysis is performed following derivatization with AMS. Trx2 contains two cysteine residues, and the addition of two molecules of AMS increases the mass by approximately 1000 Da. Oxidized and AMS derivatized forms are separated by non-reducing SDS polyacrylamide gel electrophoresis and detected by immunoblotting.

[3] = human, in vivo
Description: (§1) It was a single arm, multi dose, dose escalating trial in newly diagnosed GBM patients. The total number of patients was 43, with about 5 patients per cohort. Patients who tolerated radiation (XRT) and temozolomide (TMZ) were recruited. Inclusion criteria included completion of XRT and TMZ without grade 3 or 4 toxicity and labs within acceptable range within 6 weeks of completing XRT. The end points included safety, maximum tolerated dose (MTD), and signal of activity.
(§2) Using modified continual reassessment method, MTD was defined for metronomic and standard dose TMZ.

[4] = Phase I clinical trial GBM, safety, DLT and MTD
Description: as §1, §2

rat liver TrxR = rat liver TrxR (Rattus norvegicus, UniProt O89049); assay: Electron paramagnetic resonance, DEPMPO spin trapping; details: 100 μM Iniparib, NADPH, aerobic
Description: Computer simulations of the spectra were performed using the program written by Rockenbauer and Korecz (25). […] Then the reaction mixture was transferred by aspiration into a gas permeable PTFE tubing (Extruded Sub-Lite-Wall®, inside diameter: 0.635 mm, wall thickness: 0.051 mm, Zeus Industrial Products Ltd., Ireland). The tubing was folded twice in a W-shape and inserted into a 4-mm EPR quartz tube for EPR analysis. […] To confirm the involvement of superoxide in the appearance of the EPR signal, 100 units of superoxide dismutase (SOD) were added to the incubation prior to TrxR addition. For anaerobic experiments, the reaction mixture was immediately transferred into the gas permeable tubing and nitrogen gas was flushed through a septum cap in the sealed EPR quartz tube during the whole experiment.

HCT116 cells = assay: Protein modification by Iniparib-biotin in cells (streptavidin-HRP blot, avidin pull-down LC-MS/MS); type: cell-based, human
Description: MDA-MB-453 and HCT116 cells were first pre-treated or not for 48 h with 1 mM BSO. Afterwards cells were incubated in serum-containing conditioned medium with increasing concentrations of Iniparib-biotin derivative for up to 4 hours.
Membranes were blotted with either Streptavidin-HRP (GE Healthcare), monoclonal antibody against GAPDH (Santa Cruz Biotechnology), polyclonal antibody raised against GSTP1 (Santa Cruz Biotechnology) or with MitoProfile® Total OXPHOS human antibody cocktail (Abcam). Detection of reactive bands was performed by enhanced chemiluminescence (West DURA substrate, Pierce, Thermo scientific).
BSO pretreated HCT116 cells were incubated for 4 h with 100 μM Iniparib-biotin. Then clarified octyl-glucoside lysates were combined with monomeric avidin-agarose and mixed overnight at 4° C. […] Final wash was performed with 0.15% octyl-glucoside, 50 mM NaCl, 10 mM Tris-HCl, pH 7.5 prior to Iniparib-biotin modified proteins' elution in 0.1 M glycine, pH 2.8, 20 min at 20° C. After pH adjustment to 8.5 by Ammonium Bicarbonate addition (50 mM final), eluted proteins were reduced (10 mM DTT, 30 min at 56° C.), alkylated (30 mM iodoacetamide, 30 min at 20° C.) and digested with trypsin (10 μg, overnight at 37° C.). Tryptic Iniparib-biotin modified peptides were further purified by monomeric avidin pull-down as described above except that the buffer used was 50 mM NaCl, 10 mM Tris-HCl, pH 7.5. After elution in 0.1 M glycine, pH 2.8, 20 min at 20° C., enriched Iniparib-biotin modified peptides were analyzed by LC-MS/MS. LC-MS/MS experiments were performed on a NanoAcquity UPLC (Waters) coupled to a hybrid LTQ Orbitrap Velos mass spectrometer (Thermo Fisher Scientific) equipped with a nanoelectrospray source. Tryptic digests were loaded onto an UPLC Trap column (Symmetry C18, 5 μm, 180 μm×20 mm, Waters) and washed with 0.2% formic acid at 20 μL/min for 5 min. […] The exact parent mass is the ^12C isotope ion mass of the most intense isotopic pattern detected on the high resolution Orbitrap MS parallel scan and included in the MS/MS selection window.

Chain of rat liver TrxR (O89049 whole entry): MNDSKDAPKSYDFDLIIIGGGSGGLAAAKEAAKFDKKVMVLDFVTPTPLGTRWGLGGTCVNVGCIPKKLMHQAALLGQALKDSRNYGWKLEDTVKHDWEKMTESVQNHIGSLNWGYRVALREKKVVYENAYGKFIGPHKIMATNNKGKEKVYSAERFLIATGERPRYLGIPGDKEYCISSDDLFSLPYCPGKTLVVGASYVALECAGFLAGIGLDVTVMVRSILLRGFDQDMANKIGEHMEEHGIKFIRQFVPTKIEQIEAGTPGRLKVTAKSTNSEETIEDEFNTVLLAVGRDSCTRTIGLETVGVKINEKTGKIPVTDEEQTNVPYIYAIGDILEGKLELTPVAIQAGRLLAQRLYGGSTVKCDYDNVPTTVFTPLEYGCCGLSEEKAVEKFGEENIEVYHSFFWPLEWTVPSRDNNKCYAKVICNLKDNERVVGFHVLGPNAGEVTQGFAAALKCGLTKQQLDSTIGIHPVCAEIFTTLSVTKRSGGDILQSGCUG
T1 sequence (P09211 whole entry): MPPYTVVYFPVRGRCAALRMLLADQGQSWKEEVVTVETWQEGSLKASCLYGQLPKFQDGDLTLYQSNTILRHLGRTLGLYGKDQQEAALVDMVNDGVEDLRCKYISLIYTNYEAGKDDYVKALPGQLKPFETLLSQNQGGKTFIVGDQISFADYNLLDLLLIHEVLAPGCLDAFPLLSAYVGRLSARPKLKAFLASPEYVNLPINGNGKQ

In the case of `NC(=O)c1ccc(I)c([N+](=O)[O-])c1` [Iniparib, 4-iodo-3-nitrobenzamide], the “reaction with GSH” value ([1]; absence of GSTP1) is reported as “did not react”, the “conversion of Iniparib to Iniparib-GS” value ([1]; recombinant GSTP1 added) is reported as “complete conversion” and the Trx oxidation status [2] is reported as “accumulation of oxidized Trx”. For the same compound, the “DLT: fatigue” value [3] was 1, the “DLT: hypersensitivity reaction” value [3] was 1 and the “DLT: rash” value [3] was 1. For the same compound, the “DLT: thromboembolic event” value [3] was 1, the Fatigue [3] was 28 (65) No. (% of pts) and the Nausea [3] was 18 (42) No. (% of pts). The “additional grade 3 toxicities” value [3] was “neutropenia, lymphopenia, nausea, and elevated AST”, the Fatigue ([3]; 3 cycles (10 weeks each)) was 13 (65) No. (% of pts) and the Nausea ([3]; 3 cycles (10 weeks each)) was 9 (45) No. (% of pts). The Fatigue ([3]; 6 cycles (monthly)) was 15 (65) No. (% of pts), the Nausea ([3]; 6 cycles (monthly)) was 9 (39) No. (% of pts) and the “Phase 2 dose defined” value ([4]; IV 2×/wk with metronomic TMZ) was 8.6 mg/kg. For the same compound, the “Phase 2 dose defined” value ([4]; IV 2×/wk with standard TMZ) was 8 mg/kg, the “DEPMPO/HOO• adduct signal” value (rat liver TrxR) was “five-fold” and the “DEPMPO/HO• adduct signal” value (rat liver TrxR) was “doubled”.
For `O=C(CCCC[C@@H]1SC[C@@H]2NC(=O)N[C@@H]21)NCCNC(=O)c1ccc(I)c([N+](=O)[O-])c1` [Iniparib-biotin, 4-iodo-3-nitro-N-(2-(5-((3 aS,4S,6aR)-2-oxohexahydro-1H-thieno[3,4-d]imidazol-4-yl)pentanamido)ethyl)benzamide], the “cellular proteins bearing Iniparib adducts” value (HCT116 cells; BSO pretreated HCT116, 100 μM 4 h, MS/MS qualitative analysis) was “more than 200 cellular proteins”, the “protein labeling with Iniparib-biotin” value (HCT116 cells; HCT116 cells depleted of GSH, up to 100 μM, up to 4 h) was “strong protein labeling” and the “protein modifications by Iniparib-biotin” value (HCT116 cells; HCT116 cells not depleted of GSH) was “barely detectable”.
